Patent publication US11180462B2, “Microbiocidal oxadiazole derivatives” (SYNGENTA PARTICIPATIONS AG, priority 2015, dated 2021)

Experiments:
[1] = test system: Glomerella lagenarium (Colletotrichum lagenarium); test: Fungicidal activity against Glomerella lagenarium (Colletotrichum lagenarium) liquid culture / cucumber / preventative (anthracnose); assay type: cell-based; conditions: Colletotrichum orbiculare; 20 ppm in the applied formulation; liquid culture (PDB), growth inhibition measured photometrically after 3 to 4 days; compared to untreated control; read-out: disease control
How it was run: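 Percent activity against the untreated check was derived from photometric growth measurements made 2 to 7 days after conidia in potato dextrose broth were combined with compound at 20 ppm. Cultures were kept dark at 24 °C and 96% humidity.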

[2] = test system: Puccinia recondita f. Sp. Tritici; test: Fungicidal activity against Puccinia recondita f. sp. tritici / wheat / leaf disc curative (brown rust); assay type: in vivo; conditions: foliar, 24 h, 200 ppm in the applied formulation, wheat leaf segments, curative (applied 1 day after inoculation), compared to untreated control leaf disks, read-out: disease control
How it was run: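 % disease control vs untreated, scored 6–8 d post-application. Wheat cv. Kanzler segments, spore-inoculated, dark 19° C/75% RH; formulated cpd applied 1 d post-inoc; then 19° C, 75% RH, 12 h L/12 h D.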

[3] = test system: Puccinia recondita f. Sp. Tritici; test: Fungicidal activity against Puccinia recondita f. sp. tritici / wheat / leaf disc preventative (brown rust); assay type: in vivo; conditions: foliar, 200 ppm in the applied formulation, wheat leaf segments, preventative, compared to untreated control leaf disks, read-out: disease control
How it was run: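 200 ppm spray on wheat cv. Kanzler leaf segments; spore inoculation +1 day; 19° C., 75% rh, 12 h/12 h light cycle; single rating of % control vs untreated at 7 to 9 days.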

[4] = test system: Phakopsora Pachyrhizi; test: Fungicidal activity against Phakopsora pachyrhizi / soybean / leaf disc preventative (Asian soybean rust); assay type: in vivo; conditions: foliar, 200 ppm in the applied formulation, soybean leaf disks, compared to untreated control leaf disks, read-out: disease control
How it was run: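 Scored 12 to 14 days post-application as percent control relative to untreated check discs, rust spores were sprayed under the disc one day after compound treatment. Incubation: 20°C, 75% rh, first 24–36 h in darkness, then 12 h daily light; discs kept on water agar.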

CCC(C)C(=O)N(Cc1ccc(-c2noc(C(F)(F)F)n2)cc1)C1CC1 (stereo not shown) [Compound 1.126, N-cyclopropyl-2-methyl-N-[[4-[5-(trifluoromethyl)-1,2,4-oxadiazol-3-yl]phenyl]methyl]-butanamide]
≥ 80%: inhibition of growth at 20 ppm [1] | pest or weed control at 200 ppm [2] | pest or weed control at 200 ppm [3] | pest or weed control at 200 ppm [4]

C#CCN(Cc1ccc(-c2noc(C(F)(F)F)n2)cc1)C(=O)C(C)(C)CCl [Compound 1.176, 3-chloro-2,2-dimethyl-N-prop-2-ynyl-N-[[4-[5-(trifluoromethyl)-1,2,4-oxadiazol-3-yl]phenyl]methyl]-propanamide]
≥ 80%: inhibition of growth at 20 ppm [1] | pest or weed control at 200 ppm [2] | pest or weed control at 200 ppm [3] | pest or weed control at 200 ppm [4]

O=C(C1CC1(F)F)N(Cc1ccc(-c2noc(C(F)(F)F)n2)cc1)C1CC1 (stereo not shown) [Compound 1.89, N-cyclopropyl-2,2-difluoro-N-[[4-[5-(trifluoromethyl)-1,2,4-oxadiazol-3-yl]phenyl]methyl]-cyclopropane-carboxamide]
≥ 80%: inhibition of growth at 20 ppm [1] | pest or weed control at 200 ppm [2] | pest or weed control at 200 ppm [3] | pest or weed control at 200 ppm [4]

COCCCC(=O)N(Cc1ccc(-c2noc(C(F)(F)F)n2)cc1)OC [Compound 1.59, N,4-dimethoxy-N-[[4-(5-(trifluoromethyl)-1,2,4-oxadiazol-3-yl]phenyl]methyl]-butanamide]
≥ 80%: inhibition of growth at 20 ppm [1] | pest or weed control at 200 ppm [2] | pest or weed control at 200 ppm [3] | pest or weed control at 200 ppm [4]

CCCON(Cc1ccc(-c2noc(C(F)(F)F)n2)cc1)C(=O)C(C)OC (stereo not shown) [Compound 1.316, 2-methoxy-N-propoxy-N-[[4-[5-(trifluoromethyl)-1,2,4-oxadiazol-3-yl]phenyl]methyl]-propanamide]
≥ 80%: inhibition of growth at 20 ppm [1] | pest or weed control at 200 ppm [2] | pest or weed control at 200 ppm [3] | pest or weed control at 200 ppm [4]

CC(C)N(Cc1ccc(-c2noc(C(F)(F)F)n2)cc1)C(=O)C1CC1(F)F (stereo not shown) [Compound 1.671, 2,2-difluoro-N-isopropyl-N-[[4-[5-(trifluoromethyl)-1,2,4-oxadiazol-3-yl]phenyl]methyl]-cyclopropane-carboxamide]
≥ 80%: inhibition of growth at 20 ppm [1] | pest or weed control at 200 ppm [2] | pest or weed control at 200 ppm [3] | pest or weed control at 200 ppm [4]

CON(Cc1ccc(-c2noc(C(F)(F)F)n2)cc1)C(=O)N1CCCC1 [Compound 3.60, N-methoxy-N-[[4-[5-(trifluoromethyl)-1,2,4-oxadiazol-3-yl]phenyl]methyl]-pyrrolidine-1-carboxamide]
≥ 80%: inhibition of growth at 20 ppm [1] | pest or weed control at 200 ppm [2] | pest or weed control at 200 ppm [3] | pest or weed control at 200 ppm [4]

CON(Cc1ccc(-c2noc(C(F)(F)F)n2)cc1)C(=O)C1(C(F)(F)F)CCC1 [Compound 1.19, N-methoxy-1-(trifluoromethyl)-N-[[4-[5-(trifluoromethyl)-1,2,4-oxadiazol-3-yl]phenyl]methyl]-cyclobutane-carboxamide]
≥ 80%: inhibition of growth at 20 ppm [1] | pest or weed control at 200 ppm [2] | pest or weed control at 200 ppm [3] | pest or weed control at 200 ppm [4]

C#CCN(C)C(=O)N(Cc1ccc(-c2noc(C(F)(F)F)n2)cc1)OC [Compound 3.61, 1-methoxy-3-methyl-3-prop-2-ynyl-1-[[4-[5-(trifluoromethyl)-1,2,4-oxadiazol-3-yl]phenyl]methyl]urea]
≥ 80%: inhibition of growth at 20 ppm [1] | pest or weed control at 200 ppm [2] | pest or weed control at 200 ppm [3] | pest or weed control at 200 ppm [4]

CCCCCC(=O)N(Cc1ccc(-c2noc(C(F)(F)F)n2)cc1)OC [Compound 1.20, N-methoxy-N-[[4-[5-(trifluoromethyl)-1,2,4-oxadiazol-3-yl]phenyl]methyl]-hexanamide]
≥ 80%: inhibition of growth at 20 ppm [1] | pest or weed control at 200 ppm [2] | pest or weed control at 200 ppm [3] | pest or weed control at 200 ppm [4]

N#CCC(=O)N(Cc1ccc(-c2noc(C(F)(F)F)n2)cc1)C1CC1 [Compound 1.146, 2-cyano-N-cyclopropyl-N-[[4-[5-(trifluoromethyl)-1,2,4-oxadiazol-3-yl]phenyl]methyl]-acetamide]
≥ 80%: inhibition of growth at 20 ppm [1] | pest or weed control at 200 ppm [2] | pest or weed control at 200 ppm [3] | pest or weed control at 200 ppm [4]

O=C(C1CCCO1)N(Cc1ccc(-c2noc(C(F)(F)F)n2)cc1)C1CC1 (stereo not shown) [Compound 1.145, N-cyclopropyl-N-[[4-[5-(trifluoromethyl)-1,2,4-oxadiazol-3-yl]phenyl]methyl]-tetrahydrofuran-2-carboxamide]
≥ 80%: inhibition of growth at 20 ppm [1] | pest or weed control at 200 ppm [2] | pest or weed control at 200 ppm [3] | pest or weed control at 200 ppm [4]

CCON(Cc1ccc(-c2noc(C(F)(F)F)n2)cc1)C(=O)C1CC1 [Compound 1.564, N-ethoxy-N-[[4-[5-(trifluoromethyl)-1,2,4-oxadiazol-3-yl]phenyl]methyl]-cyclopropane-carboxamide]
≥ 80%: inhibition of growth at 20 ppm [1] | pest or weed control at 200 ppm [2] | pest or weed control at 200 ppm [3] | pest or weed control at 200 ppm [4]

CC1(C(=O)N(Cc2ccc(-c3noc(C(F)(F)F)n3)cc2)CC(F)(F)F)COC1 [Compound 1.698, 3-methyl-N-(2,2,2-trifluoroethyl)-N-[[4-[5-(trifluoromethyl)-1,2,4-oxadiazol-3-yl]phenyl]methyl]-oxetane-3-carboxamide]
≥ 80%: inhibition of growth at 20 ppm [1] | pest or weed control at 200 ppm [2] | pest or weed control at 200 ppm [3] | pest or weed control at 200 ppm [4]

CC(C)C(=O)N(O)Cc1ccc(-c2noc(C(F)(F)F)n2)cc1 [Compound 1.752, N-hydroxy-2-methyl-N-[[4-[5-(trifluoromethyl)-1,2,4-oxadiazol-3-yl]phenyl]methyl]-propanamide]
≥ 80%: inhibition of growth at 20 ppm [1] | pest or weed control at 200 ppm [2] | pest or weed control at 200 ppm [3] | pest or weed control at 200 ppm [4]

O=C(C1CCOC1)N(Cc1ccc(-c2noc(C(F)(F)F)n2)cc1)C1CC1 (stereo not shown) [Compound 1.103, N-cyclopropyl-N-[[4-[5-(trifluoromethyl)-1,2,4-oxadiazol-3-yl]phenyl]methyl]-tetrahydrofuran-3-carboxamide]
≥ 80%: inhibition of growth at 20 ppm [1] | pest or weed control at 200 ppm [2] | pest or weed control at 200 ppm [3] | pest or weed control at 200 ppm [4]

CON(Cc1ccc(-c2noc(C(F)(F)F)n2)c(F)c1)C(=O)C1CC1 [Compound 1.579, N-[[3-fluoro-4-[5-(trifluoromethyl)-1,2,4-oxadiazol-3-yl]phenyl]methyl]-N-methoxy-cyclopropane-carboxamide]
≥ 80%: inhibition of growth at 20 ppm [1] | pest or weed control at 200 ppm [2] | pest or weed control at 200 ppm [3] | pest or weed control at 200 ppm [4]

CC(=O)N(Cc1ccc(-c2noc(C(F)(F)F)n2)cc1)CC(F)(F)F [Compound 1.705, N-(2,2,2-trifluoroethyl)-N-[[4-[5-(trifluoromethyl)-1,2,4-oxadiazol-3-yl]phenyl]methyl]-acetamide]
≥ 80%: inhibition of growth at 20 ppm [1] | pest or weed control at 200 ppm [2] | pest or weed control at 200 ppm [3] | pest or weed control at 200 ppm [4]

CC1CC1C(=O)N(Cc1ccc(-c2noc(C(F)(F)F)n2)cc1)C1CC1 (stereo not shown) [Compound 1.115, N-cyclopropyl-2-methyl-N-[[4-[5-(trifluoromethyl)-1,2,4-oxadiazol-3-yl]phenyl]methyl]-cyclopropane-carboxamide]
≥ 80%: inhibition of growth at 20 ppm [1] | pest or weed control at 200 ppm [2] | pest or weed control at 200 ppm [3] | pest or weed control at 200 ppm [4]

O=C(CC(F)(F)F)N(Cc1ccc(-c2noc(C(F)(F)F)n2)cc1)C1COC1 [Compound 1.751, 3,3,3-trifluoro-N-(oxetan-3-yl)-N-[[4-[5-(trifluoromethyl)-1,2,4-oxadiazol-3-yl]phenyl]methyl]-propanamide]
≥ 80%: inhibition of growth at 20 ppm [1] | pest or weed control at 200 ppm [2] | pest or weed control at 200 ppm [3] | pest or weed control at 200 ppm [4]

C#CCN(Cc1ccc(-c2noc(C(F)(F)F)n2)cc1)C(=O)C1CCC1 [Compound 1.178, N-prop-2-ynyl-N-[[4-[5-(trifluoromethyl)-1,2,4-oxadiazol-3-yl]phenyl]methyl]-cyclobutane-carboxamide]
≥ 80%: inhibition of growth at 20 ppm [1] | pest or weed control at 200 ppm [2] | pest or weed control at 200 ppm [3] | pest or weed control at 200 ppm [4]

CC1(C(=O)N(Cc2ccc(-c3noc(C(F)(F)F)n3)cc2)CC(F)(F)F)CC1 [Compound 1.696, 1-methyl-N-(2,2,2-trifluoroethyl)-N-[[4-[5-(trifluoromethyl)-1,2,4-oxadiazol-3-yl]phenyl]methyl]-cyclopropane-carboxamide]
≥ 80%: inhibition of growth at 20 ppm [1] | pest or weed control at 200 ppm [2] | pest or weed control at 200 ppm [3] | pest or weed control at 200 ppm [4]
